Test results published in PMC7654703 (ACS chemical biology, 2020).
Values belong to the compound of their own block, whether it stands above or below them.

Legend:
[1] = optical sensor assay; cited from earlier work
[2] = system: TNFα-mediated death of WEHI-13VAR cells; test: WEHI-13VAR cell viability assay; assay type: cell-based, mouse; conditions: pre-incubation of TNFα with 20 μM SPD304 alone; final 20 nM after dilution
TNFα-TNFR1 interaction = TNFα-TNFR1 interaction (Homo sapiens, UniProt P01375); test: TNFα-TNFR1 competition ELISA; assay type: binding; conditions: 100 μM SPD304 alone
Chain of TNFα-TNFR1 interaction (P01375 77-233 limits assumed): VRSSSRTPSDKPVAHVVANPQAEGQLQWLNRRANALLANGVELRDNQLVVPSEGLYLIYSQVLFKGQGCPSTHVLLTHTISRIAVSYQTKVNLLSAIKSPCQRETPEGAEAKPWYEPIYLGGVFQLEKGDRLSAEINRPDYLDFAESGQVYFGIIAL

[3] = biological target: bicyclic 19-mer peptide (synthetic construct); conditions: cited from earlier work
TNFα trimer = TNFα trimer (Homo sapiens, UniProt P01375); test: TNFα oligomerization state by SEC; assay type: biochemical; conditions: 1 μM TNFα, additive without peptide (0.05% TWEEN20, one hour RT; 10 μM SPD304)
Chain of TNFα trimer (P01375 77-233 limits assumed): as above

Chain of TNFα (P01375 77-233): as the sequence (P01375 77-233 limits assumed) above

Compound: Cc1cc2occ(CN(C)CCN(C)Cc3cn(-c4cccc(C(F)(F)F)c4)c4ccccc34)c(=O)c2cc1C [SPD304]
critical aggregation concentration (CAC) [1]: 10 µM | block of TNFα-mediated cell death by additive alone [2]: did not substantially block | TNFα binding to TNFR1 blocked (TNFα-TNFR1 interaction): ~ 30%

Compound: TNFα (from UniProt P01375)
Kd [3]: 5 nM

effect of additive alone on TNFα trimer by SEC (TNFα trimer): did not change
Compound: TWEEN20
